{"source": "patent US20230295115A1", "about": "“SUBSTITUTED ISOQUINOLINYLMETHYL AMIDES, ANALOGUES THEREOF, AND METHODS USING SAME” (priority 2020, published 2023)", "data": [{"system": "HBV rcDNA", "experiment": "HepDE19 assay with bDNA quantitation of HBV rcDNA", "type": "cell-based, hepatitis B virus (HBV)", "settings": "HepDE19 cells, 7 day incubation, rcDNA measured by Quantigene 2.0 bDNA assay, top concentration 25 μM; read-out: DE-19bDNA EC50", "procedure": "(§1) HepDE19 assay with bDNA quantitation of HBV rcDNA:\n(§2) HepDE19 (50,000 cells/well) were plated in 96-well collagen-coated tissue-culture treated microtiter plates in DMEM/F12 medium supplemented with 10% fetal bovine serum, 1% penicillin-streptomycin and 1 μg/mL tetracycline and incubated in a humidified incubator at 37° C. and 5% CO2 overnight. Next day, the cells were switched to fresh medium without tetracycline and incubated for 4 hours at 37° C. and 5% CO2. […] The final DMSO concentration in the assay was 0.5%. The plates were incubated for 7 days in a humidified incubator at 37° C. and 5% CO2. Following a 7 day-incubation, the level of rcDNA present in the inhibitor-treated wells was measured using a Quantigene 2.0 bDNA assay kit (Affymetrix, Santa Clara, CA) with HBV specific custom probe set and manufacturers instructions. Concurrently, the effect of compounds on cell viability was assessed using replicate plates, plated at a density of 5,000 cells/well and incubated for 4 days, to determine the ATP content as a measure of cell viability using the cell-titer glo reagent (CTG; Promega Corporation, Madison, WI) as per manufacturer's instructions.", "units": {"EC50": "nM"}, "values": [{"smiles": "CC(c1c[nH]c(=O)c2cc(F)c(F)cc12)N(C)C(=O)c1cc2c(Cl)cccn2c1", "note": "(single isomer, unassigned) [Compound 77, 8-Chloro-N-(1-(6,7-difluoro-1-oxo-1,2-dihydroisoquinolin-4-yl)ethyl)-N-methylindolizine-2-carboxamide]", "EC50": 2000}, {"smiles": "CC(c1c[nH]c(=O)c2cc(F)c(F)cc12)N(C)C(=O)c1cc2c(Cl)cccn2c1", "note": "(single isomer, unassigned) [Compound 78, 8-Chloro-N-(1-(6,7-difluoro-1-oxo-1,2-dihydroisoquinolin-4-yl)ethyl)-N-methylindolizine-2-carboxamide]", "EC50": 10}, {"smiles": "CC(c1c[nH]c(=O)c2cc(F)c(F)cc12)N(C)C(=O)c1cc2c(F)cccn2c1", "note": "(single isomer, unassigned) [Compound 79, N-(1-(6,7-Difluoro-1-oxo-1,2-dihydroisoquinolin-4-yl)ethyl)-8-fluoro-N-methylindolizine-2-carboxamide]", "EC50": 3300}, {"smiles": "CC(c1c[nH]c(=O)c2cc(F)c(F)cc12)N(C)C(=O)c1cc2c(F)cccn2c1", "note": "(single isomer, unassigned) [Compound 80, N-(1-(6,7-Difluoro-1-oxo-1,2-dihydroisoquinolin-4-yl)ethyl)-8-fluoro-N-methylindolizine-2-carboxamide]", "EC50": 20}, {"smiles": "CC(c1c[nH]c(=O)c2c(F)c(F)ccc12)N(C)C(=O)c1cc2c(F)cccn2c1", "note": "(single isomer, unassigned) [Compound 81, N-(1-(7,8-Difluoro-1-oxo-1,2-dihydroisoquinolin-4-yl)ethyl)-8-fluoro-N-methylindolizine-2-carboxamide]", "EC50": 2100}, {"smiles": "CC(c1c[nH]c(=O)c2c(F)c(F)ccc12)N(C)C(=O)c1cc2c(F)cccn2c1", "note": "(single isomer, unassigned) [Compound 82, N-(1-(7,8-Difluoro-1-oxo-1,2-dihydroisoquinolin-4-yl)ethyl)-8-fluoro-N-methylindolizine-2-carboxamide]", "EC50": 70}, {"smiles": "CC(c1c[nH]c(=O)c2cc(F)c(F)cc12)N(C)C(=O)c1cc2c([nH]1)CCC(F)(F)C2", "note": "(single isomer, unassigned) [Compound 88, N-(1-(6,7-Difluoro-1-oxo-1,2-dihydroisoquinolin-4-yl)ethyl)-5,5-difluoro-N-methyl-4,5,6,7-tetrahydro-1H-indole-2-carboxamide]", "EC50": 30}, {"smiles": "CC(c1c[nH]c(=O)c2cc(F)c(F)cc12)N(C)C(=O)c1cc2c([nH]1)CCC(F)(F)C2", "note": "(single isomer, unassigned) [Compound 89, N-(1-(6,7-Difluoro-1-oxo-1,2-dihydroisoquinolin-4-yl)ethyl)-5,5-difluoro-N-methyl-4,5,6,7-tetrahydro-1H-indole-2-carboxamide]", "EC50": 1800}, {"smiles": "CC(c1c[nH]c(=O)c2c(F)c(F)ccc12)N(C)C(=O)c1cc2c([nH]1)CCC(F)(F)C2", "note": "(single isomer, unassigned) [Compound 90, N-(1-(7,8-Difluoro-1-oxo-1,2-dihydroisoquinolin-4-yl)ethyl)-5,5-difluoro-N-methyl-4,5,6,7-tetrahydro-1H-indole-2-carboxamide]", "EC50": 370}, {"smiles": "CC(c1c[nH]c(=O)c2c(F)c(F)ccc12)N(C)C(=O)c1cc2c([nH]1)CCC(F)(F)C2", "note": "(single isomer, unassigned) [Compound 91, N-(1-(7,8-Difluoro-1-oxo-1,2-dihydroisoquinolin-4-yl)ethyl)-5,5-difluoro-N-methyl-4,5,6,7-tetrahydro-1H-indole-2-carboxamide]", "EC50": 7300}, {"smiles": "CC(c1c[nH]c(=O)c2c(F)c(F)ccc12)N(C)C(=O)c1cc2c(Cl)cccn2c1", "note": "(single isomer, unassigned) [Compound 92, 8-Chloro-N-(1-(7,8-difluoro-1-oxo-1,2-dihydroisoquinolin-4-yl)ethyl)-N-methylindolizine-2-carboxamide]", "EC50": 2700}, {"smiles": "CC(c1c[nH]c(=O)c2c(F)c(F)ccc12)N(C)C(=O)c1cc2c(Cl)cccn2c1", "note": "(single isomer, unassigned) [Compound 93, 8-Chloro-N-(1-(7,8-difluoro-1-oxo-1,2-dihydroisoquinolin-4-yl)ethyl)-N-methylindolizine-2-carboxamide]", "EC50": 40}, {"smiles": "CC(c1c[nH]c(=O)c2cc(F)c(F)cc12)N(CCCO)C(=O)c1[nH]c2ccccc2c1Cl", "note": "(single isomer, unassigned) [Compound 94, 3-Chloro-N-(1-(6,7-difluoro-1-oxo-1,2-dihydroisoquinolin-4-yl)ethyl)-N-(3-hydroxypropyl)-1H-indole-2-carboxamide]", "EC50": 19000}, {"smiles": "CC(c1c[nH]c(=O)c2cc(F)c(F)cc12)N(CCCO)C(=O)c1[nH]c2ccccc2c1Cl", "note": "(single isomer, unassigned) [Compound 95, 3-Chloro-N-(1-(6,7-difluoro-1-oxo-1,2-dihydroisoquinolin-4-yl)ethyl)-N-(3-hydroxypropyl)-1H-indole-2-carboxamide]", "EC50": 400}, {"smiles": "CC(c1c[nH]c(=O)c2cc(F)c(F)cc12)N(C)C(=O)c1cc2cc(Cl)ccn2c1", "note": "(single isomer, unassigned) [Compound 96, 7-Chloro-N-(1-(6,7-difluoro-1-oxo-1,2-dihydroisoquinolin-4-yl)ethyl)-N-methylindolizine-2-carboxamide]", "EC50": 4600}, {"smiles": "CC(c1c[nH]c(=O)c2cc(F)c(F)cc12)N(C)C(=O)c1cc2cc(Cl)ccn2c1", "note": "(single isomer, unassigned) [Compound 97, 7-Chloro-N-(1-(6,7-difluoro-1-oxo-1,2-dihydroisoquinolin-4-yl)ethyl)-N-methylindolizine-2-carboxamide]", "EC50": 90}, {"smiles": "CC(c1c[nH]c(=O)c2cc(F)c(F)cc12)N(C)C(=O)c1cc2ccc(F)cn2c1", "note": "(single isomer, unassigned) [Compound 102, N-(1-(6,7-Difluoro-1-oxo-1,2-dihydroisoquinolin-4-yl)ethyl)-6-fluoro-N-methylindolizine-2-carboxamide]", "EC50": 12000}, {"smiles": "CC(c1c[nH]c(=O)c2cc(F)c(F)cc12)N(C)C(=O)c1cc2ccc(F)cn2c1", "note": "(single isomer, unassigned) [Compound 103, N-(1-(6,7-Difluoro-1-oxo-1,2-dihydroisoquinolin-4-yl)ethyl)-6-fluoro-N-methylindolizine-2-carboxamide]", "EC50": 30}, {"smiles": "CC(c1c[nH]c(=O)c2cc(F)c(F)cc12)N(C)C(=O)c1cc2cc(F)ccn2c1", "note": "(single isomer, unassigned) [Compound 108, N-(1-(6,7-Difluoro-1-oxo-1,2-dihydroisoquinolin-4-yl)ethyl)-7-fluoro-N-methylindolizine-2-carboxamide]", "EC50": 20}, {"smiles": "CC(c1c[nH]c(=O)c2cc(F)c(F)cc12)N(C)C(=O)c1cc2cc(F)ccn2c1", "note": "(single isomer, unassigned) [Compound 109, N-(1-(6,7-Difluoro-1-oxo-1,2-dihydroisoquinolin-4-yl)ethyl)-7-fluoro-N-methylindolizine-2-carboxamide]", "EC50": 3200}, {"smiles": "CC(c1c[nH]c(=O)c2cc(F)c(F)cc12)N(C)C(=O)c1cc2ccc(Cl)cn2c1", "note": "(single isomer, unassigned) [Compound 110, 6-Chloro-N-(1-(6,7-difluoro-1-oxo-1,2-dihydroisoquinolin-4-yl)ethyl)-N-methylindolizine-2-carboxamide]", "EC50": 40}, {"smiles": "CC(c1c[nH]c(=O)c2cc(F)c(F)cc12)N(C)C(=O)c1cc2ccc(Cl)cn2c1", "note": "(single isomer, unassigned) [Compound 111, 6-Chloro-N-(1-(6,7-difluoro-1-oxo-1,2-dihydroisoquinolin-4-yl)ethyl)-N-methylindolizine-2-carboxamide]", "EC50": 1400}, {"smiles": "CC(c1c[nH]c(=O)c2cc(F)c(F)cc12)N(C)C(=O)c1ccc(C(F)(F)F)c(F)c1", "note": "(single isomer, unassigned) [Compound 119, N-(1-(6,7-Difluoro-1-oxo-1,2-dihydroisoquinolin-4-yl)ethyl)-3-fluoro-N-methyl-4-(trifluoromethyl) benzamide]", "EC50": 4020}, {"smiles": "CC(c1c[nH]c(=O)c2cc(F)c(F)cc12)N(C)C(=O)c1ccc(C(F)(F)F)c(F)c1", "note": "(single isomer, unassigned) [Compound 120, N-(1-(6,7-Difluoro-1-oxo-1,2-dihydroisoquinolin-4-yl)ethyl)-3-fluoro-N-methyl-4-(trifluoromethyl) benzamide]", "EC50": 20}]}, {"system": "HBV rcDNA", "experiment": "HepDE19 assay with bDNA quantitation of HBV rcDNA", "type": "cell-based, hepatitis B virus (HBV)", "settings": "read-out: DE-19bDNA EC50; HepDE19 cells, 7 day incubation, rcDNA measured by Quantigene 2.0 bDNA assay, top concentration 25 μM", "procedure": "as §1, §2", "units": {"EC50": "nM"}, "values": [{"smiles": "CC(c1c[nH]c(=O)c2c(F)c(F)ccc12)N(C)C(=O)c1cc2ccccn2c1", "note": "(single isomer, unassigned) [Compound 72, N-(1-(7,8-Difluoro-1-oxo-1,2-dihydroisoquinolin-4-yl)ethyl)-N-methylindolizine-2-carboxamide]", "EC50": 140}, {"smiles": "CC(c1c[nH]c(=O)c2cc(F)c(F)cc12)N(CCCO)C(=O)Cc1cc2ccccc2[nH]1", "note": "(single isomer, unassigned) [Compound 83, N-(1-(6,7-Difluoro-1-oxo-1,2-dihydroisoquinolin-4-yl)ethyl)-N-(3-hydroxypropyl)-2-(1H-indol-2-yl)acetamide]", "EC50": "≥ 25000"}, {"smiles": "CC(c1c[nH]c(=O)c2cc(F)c(F)cc12)N(CCCO)C(=O)Cc1cc2ccccc2[nH]1", "note": "(single isomer, unassigned) [Compound 84, N-(1-(6,7-Difluoro-1-oxo-1,2-dihydroisoquinolin-4-yl)ethyl)-N-(3-hydroxypropyl)-2-(1H-indol-2-yl)acetamide]", "EC50": 420}]}]}
